melting point [°C] | Structure (SMILES)
122 to 123 | COCC(C)(COC)C(=O)O[C@H]1C[C@H](O)C=C2C=C[C@H](C)[C@H](CC[C@@H]3C[C@@H](O)CC(=O)O3)[C@H]21
166 to 167 | O=C(O)CCc1ccc(OCc2cccc(-c3cncnc3)c2)cc1
186 to 188 | COc1cccc2c1oc1c(N)n(C)nc12
203 to 206 | COC(=O)n1nc(-c2cc(Cl)c(C)c(Cl)c2)ccc1=O
116 to 117 | N#Cc1ccccc1CN1CCSC1=O
183 to 184 | O=C(COc1cc(=O)oc2ccccc12)c1ccccc1
234 to 236 | Cc1cc(-c2nnc3c4ccccc4c(OCc4ccccn4)nn23)no1
107 to 109 | CC1CC(=O)N(CCCCN2CCN(c3cncc(Cl)n3)CC2)S(=O)(=O)N1 (stereo unspecified)
135 to 136 | CCCCCCCCCCNC(=O)c1ccc(C(=O)NCCCCCCCCCC)c(N(CC(=O)O)CC(=O)O)c1
173 to 174 | C=CCN(CC=C)c1nc(NCC(=O)OC)n2oc(=O)nc2n1
193 to 196 | CNS(=O)(=O)N1CCn2c(c(C(N)=O)c(Cl)c2-c2ccccc2)C1
94 to 95 | NC(=O)C(OCc1ccc(Cl)cc1)(C(F)(F)F)C(F)(F)F
137 to 138 | CCN(CC)CCOc1ccc(CNc2ncc3c(n2)N(C)C(=O)N(c2c(Cl)cccc2Cl)C3)cc1
288 | Cc1cnc2c(NC(=O)c3c(Cl)cccc3Cl)cccc2c1N1CCN(C)C1=O
323 to 326 | Cc1nc2c3c(c(C(=O)O)cc2n1C)CCC(c1ccccc1)O3 (stereo unspecified)
145 to 146 | O=C(NCCCO)c1cccc(-c2ccc3c(n2)N(Cc2ccc(Cl)cc2Cl)CC3)c1
205 to 211 | CCOC(=O)c1c(-c2ccc(-c3ccccn3)cc2)n(C)n(-c2ccc(C#N)cc2)c1=O
83 to 85.5 | CCCCCS(=O)(=O)NC(=O)/C=C/c1ccc(OC(COCC)COCC)cc1Oc1ncc(C(F)(F)F)cc1Cl
225 to 226 | O=C(O)c1cccc(-n2cc(-c3ccccc3F)cn2)c1
193 | O=C(NC1Cc2ccc(-c3ccc(F)cc3)cc2C1)c1ccc(F)cc1 (stereo unspecified)
233 | CC1SC(=O)NN=C1c1ccc2c(c1)C(=Cc1ccccc1O)C(=O)N2 (stereo unspecified)
90 to 93 | Cc1cnc(-c2c(F)cccc2F)nn1
87 to 89 | CCC(C)(C)NC(=O)c1cnc2cccc(C)n2c1=O

melting point [°C] | Structure (SMILES)
110 to 111 | C[C@H]1C[C@@](O)(c2cccc(Sc3ccc4c(c3)CC(=O)N4C)c2)CCO1
249 to 251 | Cc1cc(C(F)(F)F)nn1CC(=O)N1CCC(c2csc(NC(=O)Cc3c(F)cccc3Cl)n2)CC1
46 | CCCCCCCCCCCCOc1ccccc1O
196 to 198 | COc1ccc(C)cc1NC(=O)Nc1ccc2c(c1)CCN(C(=O)Oc1ccc(C(=O)O)cc1Cl)C2
72 to 73 | C=CC(=O)OCc1cn(CCCCCCCCCCCCCCCC)nn1
105 to 106 | CC(C)c1cc(C(=O)O)oc1C(C)C
167 to 169 | Cc1ccc(C(=S)c2cccc3c2NC(=O)C3)cc1
85 | CCC1(c2ccccc2)OC(C(=O)O)Oc2ccc(Cl)cc21 (stereo unspecified)
132 to 133 | CSc1cc(C)nc(SC)c1NC(=O)CCCCCSc1nc2ncccc2o1
163 to 164 | OCCc1ccc(Nc2ncc3c(n2)-c2ccccc2C(c2ccc(Cl)cc2)C3)cc1 (stereo unspecified)
98 to 99 | CC(C)(CO)Cc1cccc(C(O)c2cccc(CC(C)(C)CO)c2)c1
203 to 205 | CCOC(=O)c1c[nH]c(-c2ccccc2OCc2ccccc2)n1
122 to 127 | Oc1ccc(-c2nnc(CSCCCOc3ccccc3)o2)cc1
55 to 56 | CC(Cc1ccc(F)c(F)c1)C(=O)O (stereo unspecified)
76.2 to 81.2 | CCCCc1nc(C)c(CCC(=S)N(C)C)c(=O)n1Cc1ccc(-c2ccccc2-c2nnn[nH]2)cc1
153 | CCOC(=O)C1=C(N)N=C(SCC)C(C(=O)OCC)C1c1cccc(C#N)c1 (stereo unspecified)
177 | CC(=O)Nc1c(OCc2ccccc2)cc(Br)cc1N(C)C
97 | CCCCSc1c2sc3ccccc3nc-2cc(C)c1=O
66 to 68 | Cc1ccc(Cl)cc1-c1noc(CCC#Cc2ccccn2)n1
166 to 168 | Cc1cnc2c(Br)cnn2c1-c1cccnc1
192 to 195 | COC(=O)CCC(=O)c1ccc(NC(=O)c2ccc(C)cc2)cc1
185 to 190 | CC1=C(C)C(Cc2csc3ccccc23)N(C)C=C1 (stereo unspecified)
188 to 190 | CCOC(=O)N(c1ccccc1-n1nc(C(=O)O)nc1CCl)c1cccc(C)c1C

melting point [°C] | Structure (SMILES)
185 to 188 | CC(=O)SCC(Cc1ccccc1)C(=O)Nc1ccc(O)c(C(=O)O)c1 (stereo unspecified)
237 to 240 | COc1cc(Nc2c(C#N)cnc3cc(/C=C/C(=O)O)ccc23)c(Cl)cc1Cl
263 to 265 | CCc1ccc(NC(=O)NCc2ccc3c(c2)CN(C2CCC(=O)NC2=O)C3=O)cc1 (stereo unspecified)
61 to 63 | CC(C)[Si](O[C@@H](CO)[C@H](CC1CCCCC1)NC(=O)OC(C)(C)C)(C(C)C)C(C)C
150 | CC1(C)C=C(c2cccnc2)c2cc(C#N)ccc2OC1
211 to 212 | Nc1ccc2oc(-c3ccccc3)c(O)c(=O)c2c1
123 to 124 | C[C@H](/C=C\c1ccc(Cc2ccc(F)cc2)s1)N(O)C(N)=O
188 to 190 | CN(C)c1onc2c1c(=O)n(C)c(=O)n2C
36 to 37 | CCCCC(=O)c1ncc(-c2ccccn2)o1
54 to 57 | BrCCCCCOc1ccc2c(c1)OCO2
320 to 321 | N=c1[nH]c2ccncc2c2nc(-c3ccco3)nn12
90 to 95 | O=C(O)CCC(O)c1ccc(-c2ccccc2Cl)cc1 (stereo unspecified)
115 to 117 | CC(=O)c1cc(F)ccc1Oc1nc2ccc(Br)cc2cc1Cc1ccccc1
126 to 127 | O=C(O)CCc1cnoc1-c1ccc(F)cc1
204 to 205 | Nc1c(C(=O)Cc2ccccc2)[nH]c2cc(Cl)ccc12
49 to 51 | CC(=O)OCC(C)(C)c1cc(OS(C)(=O)=O)ccc1OC(C)=O
132 | CNC(=O)c1ccc(F)c2c1CC(N(CCCc1c[nH]c3ccc(F)cc13)C1CCC1)CO2 (stereo unspecified)
126 | Oc1ccccc1C=NCCN=Cc1ccccc1O
156 to 157 | CCn1cc(-c2cccc(C(F)(F)F)c2)c(=O)n1-c1ccccc1
81 to 83 | CCOC(=O)c1c(C(F)(F)F)nc(C(F)(F)Cl)c(C(=O)O)c1OCC
185 to 187 | COc1ccc(C(=O)c2cc(Cl)ccc2NS(=O)(=O)c2ccc(C)cc2)c(O)c1OC
135 to 138 | COCCOCc1c(CN(C)CC(O)c2cccc(OC)c2)sc2c(=O)c(C(=O)NCc3ccc(Cl)cc3)cn(C)c12 (stereo unspecified)
285 to 288 | N#Cc1c(I)c(C(=O)Cl)c(I)c(C(=O)NCC(O)CO)c1I (stereo unspecified)

Structure (SMILES) | melting point [°C]
O=C1CC(C2CCCC2)CN1 (stereo unspecified) | 117 to 119
CCC1(O)CC(=O)OCc2c1cc1n(c2=O)Cc2cc3cccc(F)c3nc2-1 (stereo unspecified) | > 250

From a melting point compilation (Tetko et al.; mined from patent text by program, amines drawn as free bases though some values may be those of a salt)
